Assay results from patent US20260055102A1 (Redx Pharma Limited, priority 2022, published 2026).

Assays:
[1] = molecular target: Recombinant human DDR1 (aa440-876 containing a GST tag) (Homo sapiens (Human), UniProt Q08345); experiment: LanthaScreen Eu Kinase Binding Assay DDR1; conditions: Kinase Tracer 178 5 nM, at least two independent replicates; for IC50: read-out: DDR1 pIC50 (converted)
Experimental: (§1) DDR1 and DDR2 Biochemical Assay Method The capacity of compounds to bind to DDR1 and DDR2 was quantified using a LanthaScreen Eu Kinase Binding Assay. Recombinant human DDR1 (2.5 nM; aa440-876 containing a GST tag) and DDR2 (1.75 nM; aa427-855 containing a GST tag) were diluted in assay buffer (50 mM HEPES pH7.3, 10 mM MgCl2, 1 mM EGTA and 0.01% Tween) with various concentrations of compound in a 384-well plate and a volume of 5 uL. After a 30-minute incubation at room temperature, 2.5 uL of Eu-anti GST antibody (diluted to 1 nM in assay buffer) plus Kinase Tracer 178 (diluted in assay buffer to 5 nM for DDR1 and 10 nM for DDR2) were added to the plate. Following 60-minute incubation at room temperature, time-resolved fluorescence was measured on a BMG Labtech PHERAstar plate reader. DMSO (1%) and reference compound (1 μM) were used to generate the Max and Min assay signals, respectively. Data was analysed using a four-parameter logistic model to calculate IC50 values, with at least two independent replicates were performed for each compound.

[2] = molecular target: Recombinant human DDR2 (aa427-855 containing a GST tag) (Homo sapiens (Human), UniProt Q16832); experiment: LanthaScreen Eu Kinase Binding Assay DDR2; conditions: Kinase Tracer 178 10 nM, at least two independent replicates; for IC50: read-out: DDR2 pIC50 (converted)
Experimental: as §1

Chain of Recombinant human DDR1 (aa440-876 containing a GST tag) (Q08345 other isoform, or with tags, fused parts or gaps): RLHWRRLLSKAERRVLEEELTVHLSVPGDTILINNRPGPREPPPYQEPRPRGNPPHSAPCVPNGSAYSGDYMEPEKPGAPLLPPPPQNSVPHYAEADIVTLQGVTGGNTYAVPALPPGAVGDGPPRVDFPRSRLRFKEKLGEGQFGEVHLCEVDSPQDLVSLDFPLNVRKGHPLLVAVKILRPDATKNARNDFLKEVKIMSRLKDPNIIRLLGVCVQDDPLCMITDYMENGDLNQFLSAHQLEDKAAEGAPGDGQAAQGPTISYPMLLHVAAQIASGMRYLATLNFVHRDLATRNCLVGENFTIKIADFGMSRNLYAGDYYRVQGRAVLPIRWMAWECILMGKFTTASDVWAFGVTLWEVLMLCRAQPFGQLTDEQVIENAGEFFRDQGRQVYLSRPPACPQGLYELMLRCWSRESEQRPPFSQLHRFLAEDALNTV
Chain of Recombinant human DDR2 (aa427-855 containing a GST tag) (Q16832 427-855): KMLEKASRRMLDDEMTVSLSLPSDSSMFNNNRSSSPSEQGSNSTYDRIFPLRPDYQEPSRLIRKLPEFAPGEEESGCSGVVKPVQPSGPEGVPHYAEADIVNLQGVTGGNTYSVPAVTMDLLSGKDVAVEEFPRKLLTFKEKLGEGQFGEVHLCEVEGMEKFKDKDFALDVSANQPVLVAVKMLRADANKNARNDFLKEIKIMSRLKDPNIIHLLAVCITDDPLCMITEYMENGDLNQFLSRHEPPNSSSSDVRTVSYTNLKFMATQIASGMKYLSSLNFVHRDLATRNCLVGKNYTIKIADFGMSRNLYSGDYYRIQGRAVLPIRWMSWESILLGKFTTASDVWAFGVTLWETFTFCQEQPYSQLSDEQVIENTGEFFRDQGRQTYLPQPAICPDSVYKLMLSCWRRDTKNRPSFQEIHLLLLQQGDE

Row | SMILES | IC50 [1] | DDR2 pIC50 [2] | DDR1 pIC50 [1] | IC50 [2]
1 | Cn1ncc2c(-c3cc(F)c(-n4c(=O)n(CC(=O)NCC(F)(F)F)c5ccccc54)c(F)c3)cncc21 [Example 89, 2-[3-[2,6-difluoro-4-(1-methylpyrazolo[3,4-c]pyridin-4-yl)phenyl]-2-oxo-benzimidazol-1-yl]-N-(2,2,2-trifluoroethyl)acetamide] | 10 to 100 nM | D (pIC50≤6) | – | –
2 | Cc1cccc2c1n(-c1cnc(-c3cncc4c3cnn4C)cn1)c(=O)n2CC(=O)NCC(F)(F)F [Example 47, 2-[4-methyl-3-[5-(1-methylpyrazolo[3,4-c]pyridin-4-yl)pyrazin-2-yl]-2-oxo-benzimidazol-1-yl]-N-(2,2,2-trifluoroethyl)acetamide] | – | – | A (pIC50>8) | 100 to 1000 nM
3 | Cc1cccc2c1n(-c1ccc(-c3cncc4[nH]ncc34)cn1)c(=O)n2CC(=O)N1CCO[C@@H](C(F)(F)F)C1 [Example 71, 4-methyl-1-[2-oxo-2-[(2R)-2-(trifluoromethyl)morpholin-4-yl]ethyl]-3-[5-(1H-pyrazolo[3,4-c]pyridin-4-yl)-2-pyridyl]benzimidazol-2-one] | – | – | A (pIC50>8) | 100 to 1000 nM
4 | Cc1cc(-c2cncc3c2cnn3C)ccc1-n1c(=O)n(CC(=O)NCC(F)(F)F)c2cccc(C)c21 [Example 16, 2-[4-methyl-3-[2-methyl-4-(1-methylpyrazolo[3,4-c]pyridin-4-yl)phenyl]-2-oxo-benzimidazol-1-yl]-N-(2,2,2-trifluoroethyl)acetamide] | – | – | A (pIC50>8) | 100 to 1000 nM
5 | Cc1cc(-c2cncc3c2cnn3C)ccc1-n1c(=O)n(CC(=O)N2CCOC(C(F)(F)F)C2)c2ccccc21 (stereo not shown) [Example 40, 1-[2-methyl-4-(1-methylpyrazolo[3,4-c]pyridin-4-yl)phenyl]-3-[2-oxo-2-[2-(trifluoromethyl)morpholin-4-yl]ethyl]benzimidazol-2-one] | 10 to 100 nM | D (pIC50≤6) | – | –
6 | Cn1ncc2c(-c3ccc(-n4c(=O)n(CC(=O)N5CCO[C@@H](C(F)(F)F)C5)c5ccccc54)cc3)cncc21 [Example 37, 1-[4-(1-methylpyrazolo[3,4-c]pyridin-4-yl)phenyl]-3-[2-oxo-2-[(2R)-2-(trifluoromethyl)morpholin-4-yl]ethyl]benzimidazol-2-one] | 10 to 100 nM | D (pIC50≤6) | – | –
7 | Cn1ncc2c(-c3ccc(-n4c(=O)n(CC(=O)N5CC(F)(F)C5)c5ccccc54)cc3)cncc21 [Example 35, 1-[2-(3,3-difluoroazetidin-1-yl)-2-oxoethyl]-3-[4-(1-methylpyrazolo[3,4-c]pyridin-4-yl)phenyl]benzimidazol-2-one] | – | D (pIC50≤6) | D (pIC50≤6) | –
8 | Cc1cccc2c1n(-c1ncc(-c3cncc4[nH]ncc34)cn1)c(=O)n2CC(=O)N[C@@H](C)C(F)(F)F [Example 73, 2-[4-methyl-2-oxo-3-[5-(1H-pyrazolo[3,4-c]pyridin-4-yl)pyrimidin-2-yl]benzimidazol-1-yl]-N-[(1S)-2,2,2-trifluoro-1-methyl-ethyl]acetamide] | – | – | A (pIC50>8) | 100 to 1000 nM
9 | COc1cccc2c1n(-c1ccc(-c3cncc4c3cnn4C)cc1C)c(=O)n2CC(=O)NCC(F)(F)F [Example 81, 2-[4-methoxy-3-[2-methyl-4-(1-methylpyrazolo[3,4-c]pyridin-4-yl)phenyl]-2-oxo-benzimidazol-1-yl]-N-(2,2,2-trifluoroethyl)acetamide] | – | D (pIC50≤6) | D (pIC50≤6) | –
10 | Cc1ncc2c(cnn2C)c1-c1ccc(-n2c(=O)n(CC(=O)NCC(F)(F)F)c3cccc(C)c32)cn1 [Example 109] | – | D (pIC50≤6) | D (pIC50≤6) | –
11 | Cn1ncc2c(-c3ccc(-n4c(=O)n(CC(=O)N5CCC[C@H](C(F)(F)F)C5)c5ccccc54)cc3)cncc21 [Example 31, 1-[4-(1-methylpyrazolo[3,4-c]pyridin-4-yl)phenyl]-3-[2-oxo-2-[(3S)-3-(trifluoromethyl)-1-piperidyl]ethyl]benzimidazol-2-one] | – | D (pIC50≤6) | A (pIC50>8) | –
12 | Cc1cccc2c1n(-c1ccc(-c3cncc4c3cnn4C)cc1)c(=O)n2CC(=O)N1CCO[C@@H](C(F)(F)F)C1 [Example 10, 4-methyl-3-[4-(1-methypyrazolo[3,4-c]pyridin-4-yl)phenyl]-1-[2-oxo-2-[(2R)-2-(trifluoromethyl)morpholin-4-yl]ethyl]benzimidazol-2-one] | – | – | A (pIC50>8) | 10 to 100 nM
13 | Cc1cccc2c1n(-c1ccc(-c3cncc4c3cnn4C)nc1)c(=O)n2CC(=O)N1CCO[C@H](C(F)(F)F)C1 [Example 54, 4-methyl-3-[6-(1-methylpyrazolo[3,4-c]pyridin-4-yl)-3-pyridyl]-1-[2-oxo-2-[(2S)-2-(trifluoromethyl)morpholin-4-yl]ethyl]benzimidazol-2-one] | – | – | A (pIC50>8) | 10 to 100 nM
14 | Cn1ncc2c(-c3ccc(-n4c(=O)n(CC(=O)NCC(F)(F)F)c5cccc(Cl)c54)cc3)cncc21 [Example 11, 2-[4-chloro-3-[4-(1-methylpyrazolo[3,4-c]pyridin-4-yl)phenyl]-2-oxobenzimidazol-1-yl]-N-(2,2,2-trifluoroethyl)acetamide] | – | – | A (pIC50>8) | 10 to 100 nM
15 | Cc1nc(-c2cncc3c2cnn3C)cnc1-n1c(=O)n(CC(=O)NCC(F)(F)F)c2cccc(C)c21 [Example 96, 2-[4-methyl-3-[3-methyl-5-(1-methylpyrazolo[3,4-c]pyridin-4-yl)pyrazin-2-yl]-2-oxo-benzimidazol-1-yl]-N-(2,2,2-trifluoroethyl)acetamide] | – | – | A (pIC50>8) | 100 to 1000 nM
16 | Cc1cccc2c1n(-c1ccc(-c3cncc4[nH]ncc34)cc1)c(=O)n2CC(=O)NCC(F)(F)F [Example 44, 2-[4-methyl-2-oxo-3-[4-(1H-pyrazolo[3,4-c]pyridin-4-yl)phenyl]benzimidazol-1-yl]-N-(2,2,2-trifluoroethyl)acetamide] | < 10 nM | – | – | 10 to 100 nM
17 | Cn1ncc2c(-c3ccc(-n4c(=O)n(CC(=O)N5CCCCC5C(F)(F)F)c5ccccc54)cc3)cncc21 (stereo not shown) [Example 20, 1-[4-(1-methylpyrazolo[3,4-c]pyridin-4-yl)phenyl]-3-[2-oxo-2-[2-(trifluoromethyl)-1-piperidyl]ethyl]benzimidazol-2-one] | – | – | A (pIC50>8) | 100 to 1000 nM
18 | Cc1nc(-n2c(=O)n(CC(=O)NCC(F)(F)F)c3cccc(C)c32)cnc1-c1cncc2[nH]nc(C)c12 [Example 105, 2-[4-methyl-3-[6-methyl-5-(3-methyl-1H-pyrazolo[3,4-c]pyridin-4-yl)pyrazin-2-yl]-2-oxo-benzimidazol-1-yl]-N-(2,2,2-trifluoroethyl)acetamide] | 10 to 100 nM | – | – | 100 to 1000 nM
19 | Cn1ncc2c(-c3ccc(-n4c(=O)n(CC(=O)N5CCCC(C(F)(F)F)C5)c5ccccc54)cc3)cncc21 (stereo not shown) [Example 23, 1-[4-(1-methylpyrazolo[3,4-c]pyridin-4-yl)phenyl]-3-[2-oxo-2-[3-(trifluoromethyl)-1-piperidyl]ethyl]benzimidazol-2-one] | – | D (pIC50≤6) | A (pIC50>8) | –
20 | Cc1cc(-c2cncc3[nH]ncc23)ccc1-n1c(=O)n(CC(=O)NCC(F)(F)F)c2ccccc21 [Example 14, 2-[3-[2-methyl-4-(1H-pyrazolo[3,4-c]pyridin-4-yl)phenyl]-2-oxobenzimidazol-1-yl]-N-(2,2,2-trifluoroethyl)acetamide] | – | – | A (pIC50>8) | 100 to 1000 nM
